Earlier results as cited in patent publication US20040235766A1 (priority 2001, published 2004).

Molecular target: DnaX protein (Escherichia coli, UniProt P06710)
Details: read-out: dissociation constant

DnaX protein, sequence (P06710 whole entry): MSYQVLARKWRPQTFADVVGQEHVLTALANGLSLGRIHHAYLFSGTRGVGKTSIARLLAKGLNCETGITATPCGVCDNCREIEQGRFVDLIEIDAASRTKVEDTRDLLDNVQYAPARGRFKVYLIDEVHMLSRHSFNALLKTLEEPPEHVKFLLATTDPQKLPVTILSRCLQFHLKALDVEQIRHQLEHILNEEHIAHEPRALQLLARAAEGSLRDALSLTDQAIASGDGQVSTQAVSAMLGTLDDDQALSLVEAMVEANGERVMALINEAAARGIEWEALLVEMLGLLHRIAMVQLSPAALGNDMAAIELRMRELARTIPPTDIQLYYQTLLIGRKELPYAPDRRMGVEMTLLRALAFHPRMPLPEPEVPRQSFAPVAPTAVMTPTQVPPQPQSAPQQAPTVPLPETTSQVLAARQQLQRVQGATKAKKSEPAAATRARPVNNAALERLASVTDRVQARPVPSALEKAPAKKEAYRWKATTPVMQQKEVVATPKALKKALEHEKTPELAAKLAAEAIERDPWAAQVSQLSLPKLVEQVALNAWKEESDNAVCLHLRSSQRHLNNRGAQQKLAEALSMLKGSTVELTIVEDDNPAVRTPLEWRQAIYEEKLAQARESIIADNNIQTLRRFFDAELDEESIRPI

Q: With Nc1ncnc2c1ncn2[C@@H]1O[C@H](COP(=O)(O)OP(=O)(O)OP(=O)(O)O)[C@@H](O)[C@H]1O [ATP] as the molecule, how does the Kd read?
A: ~2 µM
